Molecular target: T1, PA3944 (Pseudomonas aeruginosa, UniProt Q9HX72)
T1 construct: heterologous expression; N-terminal polyhistidine tag kept for kinetics, removed for crystallization; monomer in solution
Assay: X-ray crystal structure ([…] Å)
Format: binding
Details: co-crystallized with 5 mM AcCoA, donor site

T1 sequence (Q9HX72 whole entry): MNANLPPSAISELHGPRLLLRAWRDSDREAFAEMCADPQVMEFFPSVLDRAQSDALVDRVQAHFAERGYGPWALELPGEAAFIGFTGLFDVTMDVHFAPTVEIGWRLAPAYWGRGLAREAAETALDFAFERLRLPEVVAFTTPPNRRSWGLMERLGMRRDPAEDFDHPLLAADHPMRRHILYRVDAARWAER

| Compound | X-ray crystal structure (1.80 Å) (AcCoA modeled in chain B) | X-ray crystal structure (1.80 Å) (CoA modeled in chain A) |
| --- | --- | --- |
| CC(=O)SCCNC(=O)CCNC(=O)[C@H](O)C(C)(C)COP(=O)(O)OP(=O)(O)OC[C@H]1O[C@@H](n2cnc3c(N)ncnc32)[C@H](O)[C@@H]1OP(=O)(O)O [AcCoA] | we modeled CoA in chain A and AcCoA in chain B | – |
| CC(C)(COP(=O)(O)OP(=O)(O)OC[C@H]1O[C@@H](n2cnc3c(N)ncnc32)[C@H](O)[C@@H]1OP(=O)(O)O)[C@@H](O)C(=O)NCCC(=O)NCCS [CoA] | – | we modeled CoA in chain A and AcCoA in chain B |

From PMC8072286, “Gcn5-Related N-Acetyltransferases (GNATs) With a Catalytic Serine Residue Can Play Ping-Pong Too” (Frontiers in Molecular Biosciences, 2021)
